# In US20100105610A1, “Methods of Inhibiting Tumor Cell Aggressiveness Using the Microenvironment of Human Embryonic Stem Cells” (CHILDREN'S MEMORIAL HOSPITAL, priority 2006, published 2010):
# Key:
# [1] = tested on: C8161 melanoma cells; experiment: In vivo tumor cell proliferation-to-apoptosis ratio (Ki67 / TUNEL), C8161 tumors; settings: C8161 cells treated prior to injection into mouse
# Text: (A) In vivo tumor formation in a mouse injected with MDA-MB-231 cells pre-exposed for 3 days to either a control matrix (Matrigel) or a matrix conditioned by hESCs (H9 CMTX) (n=10) (B) C81-61 cells, transfected with either an empty vector or a Nodal expression construct (n=5), and (C) MDA-MB-231 cells treated with either MO^Control or MO^Nodal (n=10). […] (D) The ratio of tumor cell proliferation to apoptosis for C8161 and MDA-MB-231 derived tumors, determined by immunohistochemical staining for Ki67 and terminal deoxynucleotidyl transferase biotin-dUTP nick-end labeling (TUNEL). Prior to injection into a mouse, C8161 and MDA-MB-231 cells were cultured for 3 days on control or hESC conditioned (H9 CMTX) matrices, or treated with MO^Nodal to knock down Nodal expression. […] (E) Immunohistochemical analysis of Ki67 expression (red/brown) and TUNEL staining in orthotopic melanoma (C8161) and breast carcinoma (MDA-MB-231) tumors. […] Proliferation is indicated by Ki67 staining and apoptotic nuclei were detected with confocal microscopy as red staining localized to the nuclei of apoptotic C8161 or MDA-MB-231 cells. […]
# In order to establish a mechanism by which exposure to the hESC microenvironment abrogates tumorigenicity, the effects of this treatment on the in vivo tumor cell proliferation-to-apoptosis ratio were analyzed. […]
# [2] = tested on: MDA-MB-231 breast carcinoma cells; experiment: In vivo tumor formation, MDA-MB-231 cells injected into the mammary fat pad; parameters: species or system mouse; settings: 500,000 Morpholino-treated MDA-MB-231 cells injected, vs control
# Text: The effects of the hESC microenvironment on the in vivo tumorigenicity of melanoma and breast carcinoma cells were examined using orthotopic mouse models. […] In order to further substantiate the role of Nodal in tumorigenicity, and to illuminate a potential mechanism for the tumor-suppressive properties of the hESC microenvironment, previously shown to diminish Nodal expression (FIG. 9), orthotopic mouse models were utilized to examine the effects of: (a) Ectopic Nodal expression on the tumorigenic potential of C81-61 cells (isogenetically matched non-tumorigenic variants of the metastatic C8161 melanoma cell line); and (b) Nodal inhibition on MDA-MB-231 breast carcinoma tumorigenicity. The control C81-61 melanoma cell line was unable to form palpable tumors when 500,000 cells were injected, and using gross observation and histology 5.5 weeks after inoculation, these tumor cells could not be detected at the site of injection. In contrast, 100% of C81-61 cells transfected with a Nodal expression vector formed palpable tumors within 3.5 weeks of injection (FIG. 13B).
# 5 week old mice were injected subcutaneously with 250,000 C8161 or 500,000 C81-61 human cutaneous melanoma cells in 50 μL of complete RPMI; or 500,000 MDA-MB-231 cells in 50 μL of complete RPMI were injected into the mammary fat pad of 8 week old mice. When tumors became palpable measurements were taken twice per week.
# [3] = tested on: Nodal; experiment: Nodal protein expression, Western blot; type: cell-based, human; settings: after administration of anti-Nodal Morpholino
# Experimental: (§1) Protein lysates were prepared and quantified as previously described in Hess et al., 2001, Cancer Res. 61:3250-3255. Equal amounts of protein were separated by SDS-polyacrylamide gel electrophoresis under reducing conditions, and the resolved proteins were transferred onto Immobilon-P membranes (Millipore Corp., Bedford, Mass.). Membranes were blocked in 1% TBS, 0.1% Tween 20 (TBS-T) and 5% dry milk powder or 3% gelatin (for Nodal Westerns). Blots were incubated with anti-Nodal or anti-Lefty antibodies (Polyclonal rabbit anti-Nodal (H-110) 1:500 Santa Cruz Biotechnology, Santa Cruz, Calif.; Polyclonal goat anti-Lefty 1:500 R&D Systems, Minneapolis, Minn.), washed in TBS-T, and incubated with the appropriate horseradish peroxidase-labeled secondary antibody. Secondary antibodies were detected by enhanced chemiluminescence (Super Signal; Pierce, Rockford, Ill.) and exposure to autoradiography film (Molecular Technologies, St Louis, Mo.). Nodal protein was detected as two major bands at ˜48 and ˜35 kDa representing precursor and pro-Nodal respectively. Nodal often appeared as multiple bands, likely due to degradation of protein modifications. All experiments were done at least three times.
# Conditioned matrices were prepared using hESCs, melanocytes, myoepithelial cells, amniotic fluid derived stem cells, or trophoblast cells on growth factor-reduced Matrigel (14 mg/mL; BD Biosciences) as previously described. Postovit et al., 2006, Stem Cells 24: 501-505. In all cases, cells were 80-100% confluent during the conditioning of the matrix. Alternatively, hESC-derived Lefty protein was seeded into Matrigel prior to polymerization. Human melanoma (C8161) or breast carcinoma (MDA-MB-231) cells, 2.5×10^5 cells/6-well dish, were subsequently exposed to this preconditioned matrix for 3 to 4 days.
# as §1, with “primary antibody (Table 2),” for “anti-Nodal or anti-Lefty antibodies (Polyclonal rabbit anti-Nodal (H-110) 1:500 Santa Cruz Biotechnology, Santa Cruz, Calif.; Polyclonal goat anti-Lefty 1:500 R&D Systems, Minneapolis, Minn.),”, “TBS-T or TBS-T containing 0.5M NaCl for the Nodal Westerns,” for “TBS-T,”, “Nodal often appeared as multiple bands, likely due to degradation of protein modifications. All experiments were done at least three times.” left out
# [4] = tested on: C8161 cells; experiment: In vitro proliferation assay (cell count), C8161; type: cell-based, human; settings: C8161, relative to MO Control; 4 days after plating 15,000 cells
substance,measurement,setting,value
"MO^Nodal: antisense Morpholino to Nodal, 5′-AAGCAGCACCTCCAGCCCTTATATC-3′ (SEQ ID NO: 20) (all phosphorodiamidate morpholino (PMO); further chemistry not fully specified)",ratio of proliferation to apoptosis,[1],decreased
same,tumorigenicity,[2],significant reduction
same,Nodal expression,[3],down-regulation
same,in vitro cell proliferation,[4],reduced proliferation
